This note sets out measurements from patent US4129565A, “Isocarbostyril derivatives” (priority 1975, dated 1978).

Usually LD50 stands for the dose at which mortality reaches 50%. High values mean a less toxic substance, low ones a more toxic substance.

Where a name gives a salt, the structure may show the parent alone.

The nature of series [1]: in vivo. The conditions noted are these: mouse, iv. The protocol: With respect to acute toxicity of the isocarbostyril derivatives of the general formula (I), experiments were carried out to obtain the LD50 values of the compounds.
The target of series [2] is T1, isolated guinea-pig atria (β1) (Cavia porcellus, UniProt H0W3H1).
T1 construct: isolated guinea-pig atria; from tissue; host or cells: isolated guinea-pig atria
Put plainly: β-adrenergic blocking effect: antagonism of isoproterenol stimulation in isolated guinea-pig atria.

Series [3] has as its target T2, isolated guinea-pig tracheas (β2) (Cavia porcellus, UniProt Q8K4Z4).
T2 construct: isolated guinea-pig tracheas; from tissue; host or cells: isolated guinea-pig tracheas
Put plainly: β-adrenergic blocking effect: antagonism of isoproterenol stimulation in isolated guinea-pig tracheas.

In series [4] the test system is reserpine-treated anaesthetized rats. Put plainly: Intrinsic heart stimulating effect in reserpine-treated anaesthetized rats. It is filed as in vivo, rat. On the procedure: Intrinsic heart stimulating effects of the compounds of the invention were also determined using reserpine-treated anaesthetized rats.

T2 sequence (Q8K4Z4 whole entry): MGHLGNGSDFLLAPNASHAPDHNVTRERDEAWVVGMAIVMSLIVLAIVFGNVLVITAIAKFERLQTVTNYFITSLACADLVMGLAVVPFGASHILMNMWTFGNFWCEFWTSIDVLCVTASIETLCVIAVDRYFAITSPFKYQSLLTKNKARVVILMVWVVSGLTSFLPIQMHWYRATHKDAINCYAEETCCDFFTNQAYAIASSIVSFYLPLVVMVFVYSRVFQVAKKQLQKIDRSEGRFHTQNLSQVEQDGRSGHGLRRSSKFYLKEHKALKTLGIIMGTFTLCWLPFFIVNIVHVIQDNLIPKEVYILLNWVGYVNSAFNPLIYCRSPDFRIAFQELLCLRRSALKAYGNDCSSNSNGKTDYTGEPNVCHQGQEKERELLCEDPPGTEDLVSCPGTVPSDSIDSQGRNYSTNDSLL
T1 sequence (H0W3H1 1-470): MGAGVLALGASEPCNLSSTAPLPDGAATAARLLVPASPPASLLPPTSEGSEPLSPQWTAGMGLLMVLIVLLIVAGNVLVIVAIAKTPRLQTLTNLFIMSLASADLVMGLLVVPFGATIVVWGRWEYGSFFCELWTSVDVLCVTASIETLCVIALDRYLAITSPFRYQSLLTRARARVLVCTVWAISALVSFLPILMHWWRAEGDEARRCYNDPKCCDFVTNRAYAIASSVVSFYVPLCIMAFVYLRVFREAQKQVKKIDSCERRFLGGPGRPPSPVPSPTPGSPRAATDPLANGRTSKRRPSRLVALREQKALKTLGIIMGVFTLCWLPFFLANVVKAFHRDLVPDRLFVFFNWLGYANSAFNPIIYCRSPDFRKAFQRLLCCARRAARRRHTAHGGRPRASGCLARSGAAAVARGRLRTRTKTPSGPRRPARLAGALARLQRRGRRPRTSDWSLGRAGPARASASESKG

As to `CCCCNCC(O)COc1cn(C)c(=O)c2ccccc12` (stereo not drawn) [R3=H, R4=n-C4 H9], the LD50 in series [1] worked out at 105 mg/kg.

Consider `CN1CCN(CC(O)COc2cn(C)c(=O)c3ccccc23)CC1` (stereo not drawn) [Example 12, 4-(3-N-methylpiperazino-2-hydroxy) propoxy-2-methyl isocarbostyril], for which, in series [1], the LD50 was determined as 270 mg/kg.

Take `Cn1cc(OCC(O)CNCc2ccccc2)c2ccccc2c1=O` (stereo not drawn) [Example 7, 4-(3-benzylamino-2-hydroxy)propoxy-2-methylisocarbostyril hydrochloride]: the LD50 in series [1] came to 120 mg/kg.

As to `Cn1cc(OCC(O)CN2CCCCC2)c2ccccc2c1=O` (stereo not drawn) [Example 9, 4-(3-piperidino-2-hydroxy)propoxy-2-methylisocarbostyril hydrochloride], in series [1], the LD50 came out at 200 mg/kg. Against the preceding compound, the LD50 is about 1.7-fold higher.

In the case of `CCCCN(C)CC(O)COc1cn(C)c(=O)c2ccccc12` (stereo not drawn) [Example 11, 4-(3-N-methyl-butylamino-2-hydroxy) propoxy-2-methyl isocarbostyril], the LD50 in series [1] is 143 mg/kg.

For the compound `CC(C)NCC(O)COc1cn(C)c(=O)c2ccccc12` (stereo not drawn) [Example 1, 4-(3-isopropylamino-2-hydroxy)propoxy-2-methylisocarbostyrilhydrochloride], the “β-adrenergic blocking activity (Relative potency) atria (β1)” value in series [2] was found to be 3.2. In addition, in series [3], the “β-adrenergic blocking activity (Relative potency) trachea (β2)” value amounted to 0.44. The compound also gave an Intrinsic heart stimulation in series [4] of 0. The same compound came in with an LD50 in series [1] of 105 mg/kg.

In the case of `CCCNCC(O)COc1cn(C)c(=O)c2ccccc12` (stereo not drawn) [R3=H, R4=n-C3 H7], the LD50 in series [1] worked out at 115 mg/kg.

`CC(C)[N+](C)(C)CC(O)COc1cn(C)c(=O)c2ccccc12` (stereo not drawn) [Example 14]: the LD50 in series [1] was below 20 mg/kg.

On to `CCCCCCNCC(O)COc1cn(C)c(=O)c2ccccc12` (stereo not drawn) [R3=H, R4=n-C6 H13], for which the LD50 in series [1] was 69 mg/kg.

Turning to `CC(C)NCC(O)COc1cccc2ccccc12` (stereo not drawn) [Propranolol, propranolol, reference compound], in series [4], the Intrinsic heart stimulation is 0.

`CC[N+](C)(CC)CC(O)COc1cn(C)c(=O)c2ccccc12` (stereo not drawn) [Example 13, 4-(3-diethylamino-2-hydroxy)propoxy-2-methyl isocarbostyril methoiodide] had an LD50 in series [1] of 15.2 mg/kg.

Compound `CC[N+](C)(C)CC(O)COc1cn(C)c(=O)c2ccccc12` (stereo not drawn) [Example 15, 4-(3-dimethylamino-2-hydroxy)propoxy-2-methyl isocarbostyril ethoiodide] came in with an LD50 in series [1] of 16.7 mg/kg.

As to `CCC(C)NCC(O)COc1cn(C)c(=O)c2ccccc12` (stereo not drawn) [Example 3, 4-(3-sec.-butylamino-2-hydroxy)propoxy-2-methyl isocarbostyril hydrochloride], in series [2], the “β-adrenergic blocking activity (Relative potency) atria (β1)” value came out at 4.5. The “β-adrenergic blocking activity (Relative potency) trachea (β2)” value in series [3] is reported as 0.05. In series [4], this compound showed an Intrinsic heart stimulation of 0. Moreover, the LD50 in series [1] was determined as 120 mg/kg.

For `Cn1cc(OCC(O)CNC2CCCCC2)c2ccccc2c1=O` (stereo not drawn) [Example 8, 4-(3-cyclohexylamino-2-hydroxy)propoxy-2-methylisocarbostyril hydrochlorid], in series [1], the LD50 stood at 80 mg/kg.

As for `Cn1cc(OCC(O)CNC(C)(C)C)c2ccccc2c1=O` (stereo not drawn) [Example 2, 4-(3-tert.-butylamino-2-hydroxy)propoxy-2-methylisocarbostyril hydrochloride], in series [2], the “β-adrenergic blocking activity (Relative potency) atria (β1)” value came out at 2.5. Further, the “β-adrenergic blocking activity (Relative potency) trachea (β2)” value in series [3] is reported as 0.52. This compound gave an Intrinsic heart stimulation in series [4] of 0. The LD50 in series [1] stood at 119 mg/kg.
